2 compounds from PubChem BioAssay AID720689 (NMMLSC, 2013) can be followed below.

This assay is described as follows: protein batch effect on Rab7 inhibitor curves, late-stage follow-up, mechanism study, biochemical, Rab7 wildtype, bead flow cytometry, two protein sources (AID 720689). The settings on record: GST-Rab7 beads, Bodipy-FL-GTP binding. For orientation: A flow cytometer gives signals particle by particle.

On to `CC1(C)Cc2c(sc(NC(=S)NC(=O)c3cccc(N=[N+]=[N-])c3)c2C(=O)O)CO1`, for which the EC50 (in general, the concentration that produces a half-maximal response) is 1.26 µM (protein source 1) and 1.24 µM (protein source 2).
Take `CC1(C)Cc2c(sc(NC(=S)NC(=O)c3ccc(N=[N+]=[N-])cc3)c2C(=O)O)CO1`: the 50% effective concentration (EC50) by setting is: (protein source 1) 0.219 µM; (protein source 2) 0.205 µM.
